Columns and labels:
Factor Xa = biological target: T1, Factor Xa (Homo sapiens, UniProt P00742); test: Dose response assay for protease inhibitors: Factor Xa; type: biochemical; conditions: ratio versus Factor XIa
T1 construct: Factor Xa; 0.2 μM in 50% glycerol (9.2 μg/mL)

Trypsin = biological target: T2, Trypsin (Bos taurus, UniProt P00760); test: Dose response assay for protease inhibitors: trypsin; type: biochemical; conditions: ratio versus Factor XIa
T2 construct: gene PRSS1
T2 sequence (P00760 24-246): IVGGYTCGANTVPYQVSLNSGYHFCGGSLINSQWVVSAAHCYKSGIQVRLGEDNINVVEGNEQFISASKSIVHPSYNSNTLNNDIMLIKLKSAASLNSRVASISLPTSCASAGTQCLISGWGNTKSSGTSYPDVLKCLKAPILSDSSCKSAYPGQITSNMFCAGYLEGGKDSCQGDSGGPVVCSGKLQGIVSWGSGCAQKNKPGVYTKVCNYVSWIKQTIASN

[1] = Caco-2 cell permeability assay (A-B and B-A); type: in vitro ADME; conditions: human; for Papp A→B at 60 min, 10 μM: A-B direction; for Papp B→A at 40 min, 10 μM: B-A direction
How it was run: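 Caco-2 monolayers were used 21-25 days post-seeding, with compound at 10 μM (1% DMSO) in HBSS-MES pH 6.5 or HBSS-HEPES pH 7.4 on the donor side. Incubation was at 37° C with shaking for 60 min (A−B) or 40 min (B−A). Donor and receiver samples were quantified by HPLC-MS/MS, and Papp and recovery were calculated.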

Thrombin = biological target: T3, Thrombin (Homo sapiens, UniProt P00734); test: Dose response assay for protease inhibitors: thrombin; type: biochemical; conditions: ratio versus Factor XIa
T3 construct: Thrombin; 0.2 μM in 50% glycerol (7.34 μg/mL)

[2] = Plasma protein binding by equilibrium dialysis; type: in vitro ADME; conditions: both sexes, pooled plasma, pH 7.4, human plasma protein binding, read-out: PPB
Method: The following procedure was used to determine the plasma protein binding of a test compound in pooled plasma from human (mixed gender) via equilibrium dialysis in a 96-well plate format. The dialysate compartment was loaded with phosphate-buffered saline (pH 7.4) and the sample side was loaded with plasma spiked with the test compound at a concentration of 10 μM. After loading, samples were covered and incubated for 4 hours at 37° C. After incubation, each compartment was sampled, diluted with acetonitrile/buffer and centrifuged. The supernatants were analyzed by HPLC-MS/MS. The analyte peak areas obtained from HPLC-MS/MS analysis of each sample were used to calculate protein binding according to the following equation (Equation 4):
where: AREAp=Peak area of analyte in protein matrix; AREAb=Peak area of analyte in buffer. The amount measured in the plasma compartment included both free and bound drug, while that on the buffer side represented free drug only; the differences were used to calculate the percentage plasma protein bound. Three reference compounds were tested in each assay: acebutolol, quinidine and warfarin.

T1 sequence (P00742 235-488 limits assumed): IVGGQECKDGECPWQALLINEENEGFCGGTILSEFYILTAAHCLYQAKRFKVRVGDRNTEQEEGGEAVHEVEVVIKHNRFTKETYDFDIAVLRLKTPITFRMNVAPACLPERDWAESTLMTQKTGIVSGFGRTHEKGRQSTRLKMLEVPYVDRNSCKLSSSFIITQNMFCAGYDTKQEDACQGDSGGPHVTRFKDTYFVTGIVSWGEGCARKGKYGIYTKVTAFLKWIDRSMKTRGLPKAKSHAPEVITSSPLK
T1 sequence (P00742 41-179 partner limits assumed): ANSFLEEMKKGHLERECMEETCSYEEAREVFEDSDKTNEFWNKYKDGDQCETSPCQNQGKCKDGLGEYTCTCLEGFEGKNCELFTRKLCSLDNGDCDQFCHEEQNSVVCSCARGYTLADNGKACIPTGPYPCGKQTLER

SMILES	FXa/FXIa (selectivity ratio) (Factor Xa)	Ratio: Trypsin/FXIa (Trypsin)	Papp A→B at 60 min, 10 μM [1] [×10⁻⁶ cm/s]	Papp B→A at 40 min, 10 μM [1] [×10⁻⁶ cm/s]	Ratio: Thrombin/FXIa (Thrombin)	fraction unbound at 4 h, 10 μM [2]
CN(C(=O)[C@@H]1[C@@H](Cc2ccnc(N)c2)C(=O)N1C(=O)N[C@@H](C1CCCCC1)C1CC1)c1ccccc1 [Compound 36]	I (“I” indicates >500)	G (“G” indicates 1-100)	31 to 50	11 to 30	H (“H” indicates 101-1000)	< 0.05
CC[C@@H](NC(=O)N1C(=O)[C@H](Cc2ccnc(N)c2)[C@H]1C(=O)N(C)c1ccncc1)c1ccccc1 [Compound 42]	I (“I” indicates >500)	G (“G” indicates 1-100)	≤ 10	31 to 50	H (“H” indicates 101-1000)	0.1 to 0.5
CC[C@@H](NC(=O)N1C(=O)[C@H](Cc2ccnc(N)c2)[C@H]1C(=O)N(C)c1ccccc1)c1cccnc1 [Compound 44]	I (“I” indicates >500)	G (“G” indicates 1-100)	≤ 10	31 to 50	G (“G” indicates 1-100)	0.1 to 0.5
CC[C@@H](NC(=O)N1C(=O)[C@H](Cc2ccnc(N)c2)[C@H]1C(=O)N(C)c1ccccc1)C1CC1 [Compound 46]	H (“H” indicates 101-1000)	G (“G” indicates 1-100)	11 to 30	> 50	G (“G” indicates 1-100)	0.1 to 0.5
C[C@@H](NC(=O)N1C(=O)[C@H](Cc2ccnc(N)c2)[C@H]1C(=O)N(C)c1ccccc1)C1CCCCC1 [Compound 49]	I (“I” indicates >500)	G (“G” indicates 1-100)	> 50	11 to 30	H (“H” indicates 101-1000)	0.05 to 0.09
CCC[C@@H](NC(=O)N1C(=O)[C@H](Cc2ccnc(N)c2)[C@H]1C(=O)N(C)c1ccccc1)C1CCCCC1 [Compound 50]	I (“I” indicates >500)	G (“G” indicates 1-100)	31 to 50	≤ 10	G (“G” indicates 1-100)	< 0.05
CN(C(=O)[C@@H]1[C@@H](Cc2ccnc(N)c2)C(=O)N1C(=O)N[C@@H](C1CCCCC1)C1CC1)c1ccncc1 [Compound 52]	I (“I” indicates >500)	G (“G” indicates 1-100)	11 to 30	31 to 50	H (“H” indicates 101-1000)	0.05 to 0.09
CC[C@@H](NC(=O)N1C(=O)[C@H](Cc2ccnc(N)c2)[C@H]1C(=O)N(C)c1ccncc1)c1cccnc1 [Compound 59]	I (“I” indicates >500)	G (“G” indicates 1-100)	≤ 10	≤ 10	H (“H” indicates 101-1000)	< 0.5
CC[C@@H](NC(=O)N1C(=O)[C@H](Cc2ccnc(N)c2)[C@H]1C(=O)N(C)c1ncccn1)c1cccnc1 [Compound 61]	H (“H” indicates 101-1000)	G (“G” indicates 1-100)	≤ 10	11 to 30	H (“H” indicates 101-1000)	< 0.5
CC[C@@H](NC(=O)N1C(=O)[C@H](Cc2ccnc(NC)c2)[C@H]1C(=O)N(C)c1ncccn1)C1CCCCC1 [Compound 80]	I (“I” indicates >500)	G (“G” indicates 1-100)	11 to 30	≤ 10	H (“H” indicates 101-1000)	< 0.05
CC[C@@H](NC(=O)N1C(=O)[C@H](Cc2ccnc(N)c2)[C@H]1C(=O)N(C)c1ncncn1)C1CCCCC1 [Compound 81]	I (“I” indicates >500)	H (“H” indicates 101-1000)	11 to 30	11 to 30	H (“H” indicates 101-1000)	< 0.05
CN(C(=O)[C@@H]1[C@@H](Cc2ccnc(N)c2)C(=O)N1C(=O)NC(c1ccccc1)c1ccccc1)c1ccncc1 [Compound 82]	I (“I” indicates >500)	G (“G” indicates 1-100)	≤ 10	31 to 50	H (“H” indicates 101-1000)	0.05 to 0.09
CC[C@@H](NC(=O)N1C(=O)[C@H](Cc2ccnc(N)c2)[C@H]1C(=O)N(C)c1ncncn1)c1ccccc1 [Compound 83]	I (“I” indicates >500)	H (“H” indicates 101-1000)	≤ 10	> 50	I (“I” indicates >500)	0.1 to 0.5
CC[C@@H](NC(=O)N1C(=O)[C@H](Cc2ccnc(N)c2)[C@H]1C(=O)N(C)c1ncccn1)c1ccccc1 [Compound 84]	I (“I” indicates >500)	G (“G” indicates 1-100)	≤ 10	31 to 50	I (“I” indicates >500)	0.1 to 0.5
CCC[C@@H](NC(=O)N1C(=O)[C@H](Cc2ccnc(N)c2)[C@H]1C(=O)N(C)c1ccncc1)c1ccccc1 [Compound 86]	I (“I” indicates >500)	G (“G” indicates 1-100)	≤ 10	31 to 50	I (“I” indicates >500)	< 0.05
CC[C@@H](NC(=O)N1C(=O)[C@H](Cc2ccnc(N)c2)[C@H]1C(=O)N(C)c1ccncc1)c1cccc(C)c1 [Compound 87]	I (“I” indicates >500)	G (“G” indicates 1-100)	≤ 10	31 to 50	H (“H” indicates 101-1000)	< 0.05
CC[C@@H](NC(=O)N1C(=O)[C@H](Cc2ccnc(N)c2)[C@H]1C(=O)N(C)c1ccncc1)c1ccc(Cl)cc1 [Compound 89]	H (“H” indicates 101-1000)	G (“G” indicates 1-100)	≤ 10	31 to 50	H (“H” indicates 101-1000)	0.05 to 0.09
CC[C@@H](NC(=O)N1C(=O)[C@H](Cc2ccnc(N)c2)[C@H]1C(=O)N(C)c1ccncc1)c1cccc(Cl)c1 [Compound 90]	I (“I” indicates >500)	G (“G” indicates 1-100)	≤ 10	11 to 30	H (“H” indicates 101-1000)	< 0.05

From US20190315711A1 (eXIthera Pharmaceuticals, Inc., priority 2016, published 2019)
